Here are results for 18 compounds from US7902354B2, “Lapachone compounds and methods of use thereof” (ArQule, Inc., priority 2006, dated 2011).

Structures are written as SMILES. Some results are limits rather than exact numbers.

Format in all cases: cell-based
The subject of experiment [1] is A549 human lung carcinoma cells. Description: MTS cell viability assay, A549 human lung carcinoma cells. The conditions noted are these: A549, 4 h compound incubation, MTS, read-out: IC50 Values, Cancerous Cells, Lung A549. A general note: Tetrazolium dyes change colour on reduction, which living cells bring about.
Experiment [2] relates to DLD-1 human colon carcinoma cells. The experiment can be described thus: MTS cell viability assay, DLD-1 human colon carcinoma cells. Conditions: DLD-1, 4 h compound incubation, MTS, read-out: IC50 Values, Cancerous Cells, Colon DLD-1.
Experiment [3] relates to DU-145 human prostate carcinoma cells. Description: MTS cell viability assay, DU-145 human prostate carcinoma cells. The conditions noted are these: DU-145, 4 h compound incubation, MTS, read-out: IC50 Values, Cancerous Cells, Prostate DU-145.
Experiment [4] relates to K-562 human leukemia cells. Description: MTS cell viability assay, K-562 human leukemia cells. Conditions: K562, K-562, 4 h compound incubation, MTS, read-out: IC50 Values, Cancerous Cells, Leukemia K-562.
Experiment [5] relates to PACA-2 human pancreatic carcinoma cells. The experiment can be described thus: MTS cell viability assay, PACA-2 human pancreatic carcinoma cells. The conditions noted are these: PACA-2, 4 h compound incubation, MTS, read-out: IC50 Values, Cancerous Cells, Pancreas PACA-2.
The test system of experiment [6] is NCM-460 normal colon epithelial cells. The experiment can be described thus: MTS cell viability assay, NCM-460 normal colon epithelial cells. The conditions noted are these: for IC50: Homo sapiens, NCM460, NCM-460, 4 h compound incubation, MTS, read-out: IC50 Values, Normal Cells, Colon NCM-460; for Fold Selectivity (NCM-460/DLD1): ratio of IC50 NCM-460 / DLD1.

With `O=C1C(=O)c2ccccc2C2=C1SCC1(CCN(Cc3ccccc3F)CC1)O2` [Compound 118, 1′-(2-fluorobenzyl)spiro[naphtho[1,2-b][1,4]oxathiine-2,4′-piperidine]-5,6-dione], the IC50 was 10.1 µM in experiment [1]; 2.42 µM in experiment [2]; 5.02 µM in experiment [3]; 3.85 µM in experiment [4]; 2.27 µM in experiment [5]; 8.3 µM in experiment [6]. Besides, the “Fold Selectivity (NCM-460/DLD1)” value in experiment [6] is on record as 3.4.

On to `O=C1C(=O)c2ccccc2C2=C1SCC1(CCN(CCCC(F)(F)F)CC1)O2` [Compound 141, 1′-(4,4,4-trifluorobutyl)spiro[naphtho[1,2-b][1,4]oxathiine-2,4′-piperidine]-5,6-dione], for which the half-maximal inhibitory concentration (IC50) was found to be 5.01 µM in experiment [1]; 1.95 µM in experiment [2]; 4.01 µM in experiment [3]; 2.39 µM in experiment [4]; 2.44 µM in experiment [5]; 8.13 µM in experiment [6]. In experiment [6], the “Fold Selectivity (NCM-460/DLD1)” value is 4.2.

For the compound `CC(c1ccccc1)N1CCC2(CC1)CSC1=C(O2)c2ccccc2C(=O)C1=O` (stereo not drawn) [Compound 137, 1′-(1-phenylethyl)spiro[naphtho[12-b][1,4]oxathiine-2,4′-piperidine]-5,6-dione], the 50% inhibitory concentration (IC50) worked out at 8.27 µM in experiment [1]; 4.08 µM in experiment [2]; 4.32 µM in experiment [3]; 4.25 µM in experiment [4]; 4.12 µM in experiment [5]; 10 µM in experiment [6]. Moreover, in experiment [6], the “Fold Selectivity (NCM-460/DLD1)” value is given as 2.5.

For the compound `Cc1ccc(CN2CCC3(CC2)CSC2=C(O3)c3ccccc3C(=O)C2=O)cc1F` [Compound 146, 1′-(3-fluoro-4-methylbenzyl)spiro[naphtho[1,2-b][1,4]oxathiine-2,4′-piperidine]-5,6-dione], the half-inhibitory concentration (IC50) in experiment [1] stood at 38.2 µM; in experiment [2] it was 4.53 µM; in experiment [3], 5.77 µM; in experiment [4], 12.1 µM; in experiment [5], 4.1 µM; in experiment [6] it was 26.4 µM. Moreover, the “Fold Selectivity (NCM-460/DLD1)” value in experiment [6] is 5.8.

On to `O=C1C(=O)c2ccccc2C2=C1SCC1(CCN(CC(O)CN3CCOCC3)CC1)O2` (stereo not drawn) [Compound 166, 1′-(2-hydroxy-3-morpholin-4-ylpropyl)spiro[naphtho[1,2-b][1,4]oxathiine-2,4′-piperidine]-5,6-dione], for which the IC50 worked out at 13.6 µM in experiment [1]; 3.7 µM in experiment [2]; 4.16 µM in experiment [3]; 2.26 µM in experiment [4]; 1.47 µM in experiment [5]; 8.69 µM in experiment [6]. Besides, the “Fold Selectivity (NCM-460/DLD1)” value in experiment [6] was determined as 2.3.

On to `O=C1C(=O)c2ccccc2C2=C1SCC1(CCN(C(=O)Oc3ccccn3)CC1)O2` [Compound 112, pyridin-2-yl 5,6-dioxo-5,6-dihydro-1′H-spiro[naphtho[1,2-b][1,4]oxathiine-2,4′-piperidine]-1′-carboxylate], for which the 50% inhibitory concentration (IC50) in experiment [1] amounted to 11.2 µM; in experiment [2] it was 1.54 µM; in experiment [3], 3.99 µM; in experiment [4], 2.97 µM; in experiment [5] it was 1.83 µM; in experiment [6], 6.3 µM. Besides, in experiment [6], the “Fold Selectivity (NCM-460/DLD1)” value turned out to be 4.1.

As to `CC(C)(C)c1ccc(OCC(O)CN2CCC3(CC2)CSC2=C(O3)c3ccccc3C(=O)C2=O)cc1` (stereo not drawn) [Compound 157, 1′-[3-(4-tert-butylphenoxy)-2-hydroxypropyl]spiro[naphtho[1,2-b][1,4]oxathiine-2,4′-piperidine]-5,6-dione], the IC50 in experiment [1] was found to be 8.03 µM; in experiment [2] it was 3.63 µM; in experiment [3] it was 2.26 µM; in experiment [4], 7.6 µM; in experiment [5] it was 2.08 µM; in experiment [6], 28.2 µM. Further, the “Fold Selectivity (NCM-460/DLD1)” value in experiment [6] was determined as 7.8.

In the case of `O=C1C(=O)c2ccccc2C2=C1SCC1(CCN(CCCOc3ccccc3)CC1)O2` [Compound 144, 1′-(3-phenoxypropyl)spiro[naphtho[1,2-b][1,4]oxathiine-2,4′-piperidine]-5,6-dione], the 50% inhibitory concentration (IC50) in experiment [1] came to 8.19 µM; in experiment [2] it was 2.17 µM; in experiment [3], 4.91 µM; in experiment [4], 4.32 µM; in experiment [5], 2.82 µM; in experiment [6], 9.9 µM. Further, in experiment [6], the “Fold Selectivity (NCM-460/DLD1)” value was determined as 4.6.

`O=C1C(=O)c2ccccc2C2=C1SCC1(CCN(C(=O)Nc3cccc(C(F)(F)F)c3)CC1)O2` [Compound 86, 5,6-dioxo-N-[3-(trifluoromethyl)phenyl]-5,6-dihydro-1′H-spiro[naphtho[1,2-b][1,4]oxathiine-2,4′-piperidine]-1′-carboxamide]: the IC50 in experiment [1] worked out at 3.84 µM; in experiment [2] it was 1.48 µM; in experiment [3] it was 1.03 µM; in experiment [4], 2.17 µM; in experiment [5] it was 1.33 µM; in experiment [6] it was 10.1 µM. Also, in experiment [6], the “Fold Selectivity (NCM-460/DLD1)” value was found to be 6.8.

Consider `O=C1C(=O)c2ccccc2C2=C1SCC1(CCN(c3cnccn3)CC1)O2` [Compound 229, 1′-pyrazin-2-ylspiro[naphtho[1,2-b][1,4]oxathiine-2,4′-piperidine]-5,6-dione], for which the IC50 was determined as 22.6 µM in experiment [1]; 4.27 µM in experiment [2]; 4.63 µM in experiment [3]; 4.14 µM in experiment [4]; 4.33 µM in experiment [5]; 12.8 µM in experiment [6]. For the same compound, the “Fold Selectivity (NCM-460/DLD1)” value in experiment [6] was 3.0.

For the compound `CN(C)c1cccc(C(=O)N2CCC3(CC2)CSC2=C(O3)c3ccccc3C(=O)C2=O)c1` [Compound 46, 1′-[3-(dimethylamino)benzoyl]spiro[naphtho[1,2-b][1,4]oxathiine-2,4′-piperidine]-5,6-dione], the 50% inhibitory concentration (IC50) was greater than 100 µM in experiment [1]; 5.26 µM in experiment [2]; 5.03 µM in experiment [3]; 9.61 µM in experiment [4]; 4.24 µM in experiment [5]; 28.6 µM in experiment [6]. The “Fold Selectivity (NCM-460/DLD1)” value in experiment [6] is 5.4.

Consider `Cc1cccc(CN2CCC3(CC2)CSC2=C(O3)c3ccccc3C(=O)C2=O)c1` [Compound 133, 1′-(3-methylbenzyl)spiro[naphtho[1,2-b][1,4]oxathiine-2,4′-piperidine]-5,6-dione], for which the IC50 worked out at 73 µM in experiment [1]; 13.1 µM in experiment [2]; 12.9 µM in experiment [3]; 15 µM in experiment [4]; 12.5 µM in experiment [5]; 29.6 µM in experiment [6]. The “Fold Selectivity (NCM-460/DLD1)” value in experiment [6] is given as 2.3.

Take `O=C1C(=O)c2ccccc2C2=C1SCC1(CCN(CC(O)COc3ccccc3)CC1)O2` (stereo not drawn) [Compound 158, 1′-(2-hydroxy-3-phenoxypropyl)spiro[naphtho[1,2-b][1,4]oxathiine-2,4′-piperidine]-5,6-dione]: the IC50 was 5.6 µM in experiment [1]; 1.48 µM in experiment [2]; 1.71 µM in experiment [3]; 1.44 µM in experiment [4]; 1.32 µM in experiment [5]; 4.91 µM in experiment [6]. In experiment [6], the “Fold Selectivity (NCM-460/DLD1)” value is on record as 3.3.

In the case of `O=C1C(=O)c2ccccc2C2=C1SCC1(CCN(C(=O)C(Cl)c3ccccc3)CC1)O2` (stereo not drawn) [Compound 50, 1′-[chloro(phenyl)acetyl]spiro[naphtho[1,2-b][1,4]oxathiine-2,4′-piperidine]-5,6-dione], the 50% inhibitory concentration (IC50) in experiment [1] is 5.41 µM; in experiment [2] it was 1.54 µM; in experiment [3], 3.55 µM; in experiment [4], 1.44 µM; in experiment [5] it was 1.42 µM; in experiment [6], 7.14 µM. Further, in experiment [6], the “Fold Selectivity (NCM-460/DLD1)” value is reported as 4.6.

Regarding `O=C1C(=O)c2ccccc2C2=C1SCC1(CCN(C/C=C/c3ccccc3)CC1)O2` [Compound 139, 1′-[(2E)-3-phenylprop-2-en-1-yl]spiro[naphtho[1.2-b][1,4]oxathiine-2,4′-piperidine]-5,6-dione], the IC50 was 27.8 µM in experiment [1]; 4.32 µM in experiment [2]; 4.42 µM in experiment [3]; 4.8 µM in experiment [4]; 4.17 µM in experiment [5]; 19.5 µM in experiment [6]. The “Fold Selectivity (NCM-460/DLD1)” value in experiment [6] came to 4.5.

Consider `O=C1C(=O)c2ccccc2C2=C1SCC1(CCN(C(=O)c3cc4ccccc4s3)CC1)O2` [Compound 51, 1′-(1-benzothien-2-ylcarbonyl)spiro[naphtho[1,2-b][1,4]oxathiine-2,4′-piperidine]-5,6-dione], for which the IC50 in experiment [1] is greater than 100 µM; in experiment [2] it was 11.6 µM; in experiment [3], 5.52 µM; in experiment [4] it was 10.3 µM; in experiment [5] it was 4.28 µM; in experiment [6], 33 µM. The “Fold Selectivity (NCM-460/DLD1)” value in experiment [6] was 2.8.

On to `O=C1C(=O)c2ccccc2C2=C1SCC1(CCN(C(=O)Oc3ccccc3)CC1)O2` [Compound 92, phenyl 5,6-dioxo-5,6-dihydro-1′H-spiro[naphtho[1,2-b][1,4]oxathiine-2,4′-piperidine]-1′-carboxylate], for which the 50% inhibitory concentration (IC50) is 31 µM in experiment [1]; 4.01 µM in experiment [2]; 9.11 µM in experiment [3]; 4.54 µM in experiment [4]; 4.29 µM in experiment [5]; 13.1 µM in experiment [6]. Also, the “Fold Selectivity (NCM-460/DLD1)” value in experiment [6] turned out to be 3.3.

With `CN(C)c1ccc(NC(=O)N2CCC3(CC2)CSC2=C(O3)c3ccccc3C(=O)C2=O)cc1` [Compound 88, N-[4-(dimethylamino)phenyl]-5,6-dioxo-5,6-dihydro-1′H-spiro[naphtho[1,2-b][1,4]oxathiine-2,4′-piperidine]-1′-carboxamide], the IC50 amounted to 13.3 µM in experiment [1]; 1.49 µM in experiment [2]; 4.33 µM in experiment [3]; 2.14 µM in experiment [4]; 1.85 µM in experiment [5]; 6.08 µM in experiment [6]. Further, in experiment [6], the “Fold Selectivity (NCM-460/DLD1)” value worked out at 4.1.

By IC50 is commonly meant the concentration at which inhibition is half-maximal.
